Assay results published in PubChem BioAssay (NCI).
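Each compound was tested at five concentrations against cells in 96-well plates for 48 hours. GI50 is the concentration that inhibits growth by half. TGI marks complete inhibition of growth.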

Tests used:
Assay in all cases: NCI anticancer screen, dose series, 48 h
786-0 renal = test system: 786-0 renal
CAKI-1 renal = test system: CAKI-1 renal
HCT-116 colon = test system: HCT-116 colon
KM12 colon = test system: KM12 colon
MDA-MB-435 = test system: MDA-MB-435
OVCAR-3 ovarian = test system: OVCAR-3 ovarian
RPMI-8226 leukemia = test system: RPMI-8226 leukemia
RXF 393 renal = test system: RXF 393 renal
SF-268 CNS = test system: SF-268 CNS
UACC-257 melanoma = test system: UACC-257 melanoma

Compound | GI50 (786-0 renal) | TGI (786-0 renal) | GI50 (CAKI-1 renal) | TGI (CAKI-1 renal) | GI50 (HCT-116 colon) | TGI (HCT-116 colon) | GI50 (KM12 colon) | TGI (KM12 colon) | GI50 (MDA-MB-435) | TGI (MDA-MB-435) | GI50 (OVCAR-3 ovarian) | TGI (OVCAR-3 ovarian) | GI50 (RPMI-8226 leukemia) | TGI (RPMI-8226 leukemia) | GI50 (RXF 393 renal) | TGI (RXF 393 renal) | GI50 (SF-268 CNS) | TGI (SF-268 CNS) | GI50 (UACC-257 melanoma) | TGI (UACC-257 melanoma)
CC1(C)OC[C@@H]([C@@]2(CO[Si](C)(C)C(C)(C)C)CC=CC(=O)O2)O1 | 20.7 µM | 40.4 µM | 12.2 µM | 57.7 µM | 17.6 µM | 44.6 µM | 31.1 µM | > 100 µM | 22.8 µM | 57.4 µM | 15.9 µM | 39.7 µM | 24.2 µM | 80.5 µM | 23.6 µM | 56.3 µM | 29 µM | 89.2 µM | 13.8 µM | 33.2 µM
CC(C)(C)C(=O)Nc1ccccc1I(=O)=O | > 100 µM | > 100 µM | > 100 µM | > 100 µM | – | – | > 100 µM | > 100 µM | > 100 µM | > 100 µM | > 100 µM | > 100 µM | > 100 µM | > 100 µM | > 100 µM | > 100 µM | > 100 µM | > 100 µM | > 100 µM | > 100 µM
COc1cc(Cl)cc(-c2nn(C(=O)NCCN3CCN(C)CC3)cc2-c2ccncc2)c1 | 5.99 µM | 25.6 µM | 4.35 µM | 25.3 µM | 14.8 µM | 31.3 µM | 20.5 µM | 79.6 µM | 10.4 µM | 35 µM | 23.6 µM | 85.9 µM | 21.9 µM | > 100 µM | 2.41 µM | 18.1 µM | 7.35 µM | > 100 µM | 20.5 µM | > 100 µM
O=C(c1cc(F)c(Cl)cc1Cl)N1N=C(c2ccccc2)CC1(O)c1ccccc1 (centres undefined) | 15.8 µM | 40.9 µM | 31.7 µM | > 100 µM | 10.1 µM | 21.7 µM | 20.1 µM | 44.8 µM | 22.1 µM | 49.4 µM | 18.9 µM | 59.5 µM | 11.5 µM | 35.4 µM | 23.6 µM | 48.1 µM | 21.9 µM | 53.2 µM | 24.7 µM | 51.6 µM
O=[N+]([O-])c1ccc(-c2nc(N(CCO)CCO)c3ccccc3n2)o1 | 0.231 µM | 0.621 µM | 0.282 µM | 3.33 µM | 0.232 µM | 1.24 µM | 0.216 µM | 0.862 µM | 0.309 µM | 1.27 µM | 0.235 µM | 1.43 µM | 0.567 µM | > 21.3 µM | 0.159 µM | 0.34 µM | 0.211 µM | 1.52 µM | 0.189 µM | 0.453 µM
OC(C1=C/C(=C\c2ccncc2)c2ccccc21)c1ccncc1 (centres undefined) | – | 30.3 µM | – | > 49.5 µM | – | 28.2 µM | – | 35.1 µM | – | 27.9 µM | – | 31.7 µM | – | 22.4 µM | – | 30.6 µM | – | 57.3 µM | – | 19.1 µM
CCN(CC)CCOc1ccc(Nc2ncc3cc(-c4ccc(O)cc4)c(=O)n(C)c3n2)cc1 | 0.391 µM | 2.65 µM | 0.0379 µM | 16.1 µM | – | – | 2.44 µM | 17.1 µM | 0.983 µM | 16.1 µM | 15.9 µM | 31.2 µM | 14.5 µM | 44.5 µM | 0.147 µM | 1.67 µM | 1.19 µM | 20.9 µM | 7.57 µM | 31.6 µM
Cc1ccccc1C(=O)C#Cc1cn(C2CC(O)C(CO)O2)c(=O)[nH]c1=O (centres undefined) | – | > 100 µM | – | > 100 µM | – | > 100 µM | – | > 100 µM | – | > 100 µM | – | > 100 µM | – | > 100 µM | – | > 100 µM | – | > 100 µM | – | > 100 µM
N#CC1=C(N)OC2=C(COc3ccc(F)cc32)C1c1ccc(Cl)cc1 (centres undefined) | 32.3 µM | > 100 µM | 30.1 µM | > 100 µM | 36.3 µM | > 100 µM | 33.4 µM | > 100 µM | 28.5 µM | > 100 µM | 17.2 µM | 42.3 µM | 26.6 µM | > 100 µM | > 100 µM | > 100 µM | 42.8 µM | > 100 µM | 41.6 µM | > 100 µM
CCCc1ccc(S(=O)(=O)N[C@H]2CC[C@H]3[C@@H]4CCc5cc(O)ccc5[C@H]4CC[C@]23C)cc1 | 3.02 µM | 9.16 µM | 3.45 µM | 11.9 µM | 1.78 µM | 3.27 µM | 2.68 µM | 7.81 µM | 3.13 µM | 11.1 µM | – | – | 2.9 µM | 10 µM | 1.67 µM | 4.42 µM | 3.44 µM | 13.4 µM | 3.83 µM | 15.7 µM
COC(=O)COc1ccc(/C=C2\N=C(c3ccccc3)N(c3cc(C(F)(F)F)ccc3Cl)C2=O)cc1 | > 100 µM | > 100 µM | > 100 µM | > 100 µM | 38.4 µM | > 100 µM | 42.3 µM | > 100 µM | 50.3 µM | > 100 µM | 26.1 µM | 96.8 µM | 19 µM | 46.1 µM | > 100 µM | > 100 µM | 48.4 µM | > 100 µM | – | –
COc1ccc(/C=C2\CN(C(=O)C(Cl)Cl)C/C(=C\c3ccc(OC)c(OC)c3)C2=O)cc1OC | 0.326 µM | 1.19 µM | 0.368 µM | 1.98 µM | 0.0306 µM | 0.103 µM | 0.0987 µM | 0.332 µM | 0.0528 µM | 0.265 µM | – | – | 0.0306 µM | 0.155 µM | 0.209 µM | 0.492 µM | 2.42 µM | > 100 µM | – | –
C/C=C(\C)C(=O)N[C@H]1[C@@H](OC(C)=O)C[C@]2(C)C3CC[C@@]4(C)C(CC[C@@H]4C(C)N(C)C)C3CCC2[C@H]1O (some centres undefined) | 5.22 µM | 16.3 µM | 3.2 µM | 14 µM | 1.88 µM | 4.34 µM | 4.35 µM | 15.5 µM | 2.27 µM | 6.78 µM | 5.56 µM | 19.1 µM | – | – | 1.71 µM | 14.4 µM | 2.9 µM | 13.3 µM | 1.98 µM | 5.16 µM
Fc1ccc(Oc2nccc(-c3c(-c4ccc(F)cc4)ncn3C3CCNCC3)n2)cc1 | > 25 µM | > 25 µM | 20.5 µM | > 25 µM | > 25 µM | > 25 µM | > 25 µM | > 25 µM | > 25 µM | > 25 µM | > 25 µM | > 25 µM | > 25 µM | > 25 µM | > 25 µM | > 25 µM | > 25 µM | > 25 µM | – | –
